pEC50, pIC50: −log10 of the molar value.

For the first assay, the target named is Phosphodiesterase 4 (Homo sapiens, UniProt P27815+Q08499+Q07343+Q08493). Kind of assay: Inhibition of human PDE4. Format: protein assay.
For `COc1ccc(C2=NN(C3CCCCCC3)C(=O)[C@H]3CC=CC[C@@H]23)cc1OCCCCOc1ccc(-c2nn[nH]n2)cc1`, the IC50 (as a rule, the midpoint of a concentration-inhibition curve) was determined as 0.0006 µM.

`COc1ccc(C2=NN(C3CCCC3)C(=O)[C@H]3CC=CC[C@@H]23)cc1OC1CCCC1` showed a half-inhibitory concentration (IC50) of 0.01 µM.

System in another assay: not listed separately
As to the kind of experiment: Inhibition of Trypanosoma brucei PDEB2.
Turning to `COc1ccc(C2=NN(C3CCCCCC3)C(=O)[C@H]3CC=CC[C@@H]23)cc1OCCCCOc1ccc(-c2nn[nH]n2)cc1`, the pIC50 – broadly, −log10 of the IC50, conventionally taken in molar units – is 8.22.

Consider `COc1ccc(C2=NN(C3CCCC3)C(=O)[C@H]3CC=CC[C@@H]23)cc1OC1CCCC1`, for which the pIC50 is 6.26.

For the next assay, the system named is Trypanosoma brucei brucei. Kind of assay: Antitrypanosomal activity against Trypanosoma brucei brucei. Format: functional, organism-based.
With `COc1ccc(C2=NN(C3CCCCCC3)C(=O)[C@H]3CC=CC[C@@H]23)cc1OCCCCOc1ccc(-c2nn[nH]n2)cc1`, the negative logarithm of the EC50 (pEC50) (as a rule, the EC50 on a negative log10 scale, so that one unit is a factor of ten) is 7.10.

The target of a further assay is T1, Class 1 phosphodiesterase PDEB1 (Trypanosoma brucei, UniProt Q8WQX9).
T1 sequence (Q8WQX9 whole entry): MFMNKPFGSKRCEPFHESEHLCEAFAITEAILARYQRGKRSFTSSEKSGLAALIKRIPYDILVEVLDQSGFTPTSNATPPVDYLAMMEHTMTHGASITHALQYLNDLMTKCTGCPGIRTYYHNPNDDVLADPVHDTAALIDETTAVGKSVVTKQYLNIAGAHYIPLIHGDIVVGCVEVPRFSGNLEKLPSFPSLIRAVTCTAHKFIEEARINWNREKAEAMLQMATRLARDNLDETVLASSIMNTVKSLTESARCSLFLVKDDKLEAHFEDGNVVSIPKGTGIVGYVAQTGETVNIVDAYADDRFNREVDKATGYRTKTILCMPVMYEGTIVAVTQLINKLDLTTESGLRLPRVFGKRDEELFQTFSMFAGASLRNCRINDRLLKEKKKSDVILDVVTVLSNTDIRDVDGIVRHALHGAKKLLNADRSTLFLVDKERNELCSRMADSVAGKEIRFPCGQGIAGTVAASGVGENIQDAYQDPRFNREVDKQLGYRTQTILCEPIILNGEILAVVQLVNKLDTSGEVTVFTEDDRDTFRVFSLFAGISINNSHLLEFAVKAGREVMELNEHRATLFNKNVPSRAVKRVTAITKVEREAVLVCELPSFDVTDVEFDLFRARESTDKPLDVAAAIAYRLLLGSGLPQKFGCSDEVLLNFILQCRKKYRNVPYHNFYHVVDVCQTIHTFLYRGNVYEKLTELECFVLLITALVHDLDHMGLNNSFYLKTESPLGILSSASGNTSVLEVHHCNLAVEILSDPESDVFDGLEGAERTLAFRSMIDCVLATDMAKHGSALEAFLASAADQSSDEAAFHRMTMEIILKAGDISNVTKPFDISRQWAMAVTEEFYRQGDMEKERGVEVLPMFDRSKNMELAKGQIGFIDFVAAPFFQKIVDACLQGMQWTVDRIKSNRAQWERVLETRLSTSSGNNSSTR
As to the kind of experiment: Inhibition of Trypanosoma brucei PDEB1.
Consider `COc1ccc(C2=NN(C3CCCC3)C(=O)[C@H]3CC=CC[C@@H]23)cc1OC1CCCC1`, for which the pIC50 is 6.56.

A further assay concerns the target T2, Class 1 phosphodiesterase PDEB1 (Trypanosoma brucei) (UniProt Q8WQX9).
T2 sequence (whole entry): T1 sequence (Q8WQX9 whole entry)
As to the kind of experiment: Inhibition of Trypanosoma brucei recombinant PDEB1 at 10 uM by spectrophotometric analysis relative to control.
For `COc1ccc(-c2ccnc(NCc3ccccc3)n2)cc1OCc1ccccc1`, the inhibition (usually the drop in the measured response relative to a control, in per cent) turned out to be 18.5%.

In the case of `COc1ccc(-c2ccnc(N(C)C)c2)cc1OC1CCCC1`, the inhibition was determined as 34%.

On to `COc1ccc(-c2ccnc(N(C)C)n2)cc1OC1CCCC1`, for which the inhibition was 15.8%.

With `COc1ccc(-c2ccnc(NC3CCCCC3)c2)cc1OC1CCCC1`, the inhibition stood at 27.1%.

Take `COc1ccc(-c2ccnc(NCc3ccccc3)c2)cc1OCc1ccccc1`: the inhibition turned out to be 7.2%.

Consider `COc1ccc(-c2ccnc(N(C)C)n2)cc1OCc1ccccc1`, for which the inhibition worked out at 14.5%.

Take `COc1ccc(-c2ccnc(NC3CCCCC3)c2)cc1OCc1ccccc1`: the inhibition stood at 28.4%.

Regarding `COc1ccc(-c2ccncc2)cc1OC1CCCC1`, the inhibition was 18.7%.

For `COc1ccc(-c2cccc3ncccc23)cc1OC1CCCC1`, the inhibition worked out at 69.1%.

`COc1ccc(-c2ccnc(NC3CCCCCC3)n2)cc1OCc1ccccc1`: the inhibition is 22.3%.

As to `COc1ccc(-c2ccnc(N(C)C)c2)cc1OCc1ccccc1`, the inhibition turned out to be 48%.

For the compound `COc1ccc(-c2ccnc(NC3CCCC3)n2)cc1OCc1ccccc1`, the inhibition turned out to be 21.8%.

Take `COc1ccc(-c2ccnc(NC3CCCC3)n2)cc1OC1CCCC1`: the inhibition was determined as 12.7%.

Take `COc1ccc(-c2ccnc(NC3CCC3)n2)cc1OCc1ccccc1`: the inhibition came out at 16.1%.

`COc1ccc(-c2ccnc(NC3CCCCCC3)n2)cc1OC1CCCC1`: the inhibition turned out to be 20.6%.

As to `COc1ccc(-c2ccnc(NC3CCCCC3)n2)cc1OC1CCCC1`, the inhibition was 29.8%.

For the compound `COc1ccc(-c2ccnc(NCc3ccccc3)n2)cc1OC1CCCC1`, the inhibition turned out to be 32.9%.

As to `COc1ccc(-c2ccnc(NC3CCC3)n2)cc1OC1CCCC1`, the inhibition turned out to be 3.9%.

In the case of `COc1ccc(-c2ccc(OC)c(OC3CCCC3)c2)cn1`, the inhibition stood at 7.6%.

In the case of `COc1ccc(-c2ccnc(NC3CCCCC3)n2)cc1OCc1ccccc1`, the inhibition amounted to 23.2%.
